Assay results reported in US20130252935A1, “Monobactams” (PFIZER INC., priority 2010, published 2013).
Converted amounts (≈) assume the structure as drawn.

Experiments:
Type in all cases: cell-based
[1] = tested on: Pseudomonas aeruginosa UC-12120; assay: minimum inhibitory concentration (MIC) testing according to CLSI guidelines, Pseudomonas aeruginosa; conditions: UC-12120, wild-type, labeled as 1091-05, overnight incubation, lower of duplicate values; for MIC: Pseudomonas aeruginosa, UC12120, read-out: AB-MBT: Pseudomonas aeruginosa 1091-05: MIC (MstRcn)
Outline: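 Broth dilution MIC per CLSI guidelines against wild-type P. aeruginosa UC-12120 (1091-05), using 2-fold drug dilutions and overnight incubation with visual reading of lowest growth-inhibiting concentration. Tested in duplicate; lower value reported when within 2-fold, with control organisms and reference compounds for quality control.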

[2] = tested on: Klebsiella pneumoniae 1000-02; assay: minimum inhibitory concentration (MIC) testing according to CLSI guidelines, Klebsiella pneumoniae; conditions: ciprofloxacin-resistant, ESBL-expressing clinical isolate 1000-02, overnight incubation, lower of duplicate values; for MIC: Klebsiella pneumoniae, read-out: AB-MBT: Klebsiella pneumoniae 1000-02: MIC (MstRcnt)
Outline: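 MIC by CLSI broth dilution with 2-fold concentration steps and overnight incubation; lowest concentration visibly inhibiting growth versus drug-free control. Ciprofloxacin-resistant, ESBL-expressing clinical isolate 1000-02. Run in duplicate, lower value reported when within 2-fold, with QC organisms and reference compounds per run.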

[3] = tested on: Acinetobacter baumannii/haemolyticus AB-3167; assay: minimum inhibitory concentration (MIC) testing according to CLSI guidelines, Acinetobacter; conditions: multidrug-resistant clinical isolate AB-3167, overnight incubation, lower of duplicate values; for MIC: Acinetobacter baumannii, read-out: AB-MBT: Acinetobacter baumanii AB-3167: MIC (MstRcnt)
Outline: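 Broth dilution MIC per CLSI M7-A8/M100-S20 against multidrug-resistant clinical isolate AB-3167, using 2-fold drug dilutions and overnight incubation; MIC is the lowest concentration without visible growth. Duplicates within 2-fold reported as the lower value, with control strains and reference compounds in range.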

Row | MIC [1] [µg/mL] | MIC [2] [µg/mL] | AB-MBT: Pseudomonas aeruginosa 1091-05: MIC (MstRcn) [1] [µg/mL] | AB-MBT: Klebsiella pneumoniae 1000-02: MIC (MstRcnt) [2] [µg/mL] | SMILES | MIC [3] [µg/mL] | AB-MBT: Acinetobacter baumanii AB-3167: MIC (MstRcnt) [3] [µg/mL]
1 | 8 (≈ 12 µM) | 64 (≈ 96 µM) |  |  | CC(C)(O/N=C(\C(=O)N[C@@H]1C(=O)N(S(=O)(=O)O)[C@@H]1COC(=O)c1ccnc(-c2cc(=O)c(O)c[nH]2)n1)c1csc(N)n1)C(=O)O [Example 21, 2-({[(1Z)-1-(2-amino-1,3-thiazol-4-yl)-2-({(2S,3S)-2-[({[2-(5-hydroxy-4-oxo-1,4-dihydropyridin-2-yl)pyrimidin-4-yl]carbonyl}oxy)methyl]-4-oxo-1-sulfoazetidin-3-yl}amino)-2-oxoethylidene]amino}oxy)-2-methylpropanoic acid] | > 64 | 
2 | 1 (≈ 1.49 µM) | 0.5 (≈ 0.746 µM) |  |  | CC(C)(O/N=C(\C(=O)N[C@@H]1C(=O)N(S(=O)(=O)O)[C@@H]1CNC(=O)c1csc(-c2cc(=O)c(O)c[nH]2)n1)c1csc(N)n1)C(=O)O [Example 20, 2-({[(1Z)-1-(2-amino-1,3-thiazol-4-yl)-2-({(2R,3S)-2-[({[2-(5-hydroxy-4-oxo-1,4-dihydropyridin-2-yl)-1,3-thiazol-4-yl]carbonyl}amino)methyl]-4-oxo-1-sulfoazetidin-3-yl}amino)-2-oxoethylidene]amino}oxy)-2-methylpropanoic acid] | 1 (≈ 1.49 µM) | 
3 |  |  | 0.250 | 0.500 | CC(C)(O/N=C(\C(=O)N[C@@H]1C(=O)N(S(=O)(=O)[O-])[C@@H]1CNC(=O)c1coc(-c2cc(=O)c(O)c[nH]2)n1)c1csc(N)n1)C(=O)[O-].[Na+].[Na+] [Example 18, 2-({[(1Z)-1-(2-amino-1,3-thiazol-4-yl)-2-({(2R,3S)-2-[({[2-(5-hydroxy-4-oxo-1,4-dihydropyridin-2-yl)-1,3-oxazol-4-yl]carbonyl}amino)methyl]-4-oxo-1-sulfoazetidin-3-yl}amino)-2-oxoethylidene]amino}oxy)-2-methylpropanoic acid, bis sodium salt] |  | 1.00
4 | 1 (≈ 1.53 µM) | 0.5 (≈ 0.764 µM) |  |  | CC(C)(O/N=C(\C(=O)N[C@@H]1C(=O)N(S(=O)(=O)O)[C@@H]1CNC(=O)c1cc(-c2cc(=O)c(O)c[nH]2)no1)c1csc(N)n1)C(=O)O [Example 14, 2-({[(1Z)-1-(2-amino-1,3-thiazol-4-yl)-2-({(2R,3S)-2-[({[3-(5-hydroxy-4-oxo-1,4-dihydropyridin-2-yl)isoxazol-5-yl]carbonyl}amino)methyl]-4-oxo-1-sulfoazetidin-3-yl}amino)-2-oxoethylidene]amino}oxy)-2-methylpropanoic acid] | 0.5 (≈ 0.764 µM) | 

The next lines start with the compound.

Row | SMILES | MIC [1] [µg/mL] | MIC [2] [µg/mL] | AB-MBT: Pseudomonas aeruginosa 1091-05: MIC (MstRcn) [1] [µg/mL] | AB-MBT: Klebsiella pneumoniae 1000-02: MIC (MstRcnt) [2] [µg/mL] | MIC [3] [µg/mL] | AB-MBT: Acinetobacter baumanii AB-3167: MIC (MstRcnt) [3] [µg/mL]
5 | Cn1cc(O)c(=O)cc1C(=O)NC[C@@H]1[C@H](NC(=O)/C(=N\OC(C)(C)C(=O)O)c2csc(N)n2)C(=O)N1S(=O)(=O)O [Example 35, 2-({[(1Z)-1-(2-amino-1,3-thiazol-4-yl)-2-{[(2R,3S)-2-({[(5-hydroxy-1-methyl-4-oxo-1,4-dihydropyridin-2-yl)carbonyl]amino}methyl)-4-oxo-1-sulfoazetidin-3-yl]amino}-2-oxoethylidene]amino}oxy)-2-methylpropanoic acid] | 4 (≈ 6.65 µM) | 0.25 (≈ 0.416 µM) |  |  | 0.5 (≈ 0.831 µM) | 
6 | C[C@H](O/N=C(\C(=O)N[C@@H]1C(=O)N(S(=O)(=O)O)[C@@H]1CNC(=O)NCc1cc(=O)c(O)cn1O)c1nc(N)sc1Cl)C(=O)O [Example 34, (2S)-2-({[(1Z)-1-(2-amino-5-chloro-1,3-thiazol-4-yl)-2-({(2R,3S)-2-[({[(1,5-dihydroxy-4-oxo-1,4-dihydropyridin-2-yl)methyl]carbamoyl}amino)methyl]-4-oxo-1-sulfoazetidin-3-yl}amino)-2-oxoethylidene]amino}oxy)propanoic acid] | 0.125 (≈ 0.191 µM) | 0.5 (≈ 0.766 µM) |  |  | 0.25 (≈ 0.383 µM) | 
7 | CC(C)(O/N=C(\C(=O)N[C@@H]1C(=O)N(S(=O)(=O)O)[C@@H]1CNS(=O)(=O)c1cccc(C(=O)NCc2cc(=O)c(O)cn2O)c1)c1csc(N)n1)C(=O)O [Example 68, 2-({[(1Z)-1-(2-amino-1,3-thiazol-4-yl)-2-{[(2R,3S)-2-({[(3-{[(1,5-dihydroxy-4-oxo-1,4-dihydropyridin-2-yl)methyl]carbamoyl}phenyl)sulfonyl]amino}methyl)-4-oxo-1-sulfoazetidin-3-yl]amino}-2-oxoethylidene]amino}oxy)-2-methylpropanoic acid] | 4 (≈ 5.18 µM) | 1 (≈ 1.29 µM) |  |  | 4 (≈ 5.18 µM) | 
8 | Nc1nc(/C(=N/OC2(C(=O)O)CCC2)C(=O)N[C@@H]2C(=O)N(S(=O)(=O)O)[C@@H]2CNC(=O)NCc2cc(=O)c(O)cn2O)cs1 [Example 30, 1-({[(1Z)-1-(2-amino-1,3-thiazol-4-yl)-2-({(2R,3S)-2-[({[(1,5-dihydroxy-4-oxo-1,4-dihydropyridin-2-yl)methyl]carbamoyl}amino)methyl]-4-oxo-1-sulfoazetidin-3-yl}amino)-2-oxoethylidene]amino}oxy)cyclobutanecarboxylic acid] | 0.125 (≈ 0.194 µM) | 0.125 (≈ 0.194 µM) |  |  | 0.25 (≈ 0.388 µM) | 
9 | CC(C)(O/N=C(\C(=O)N[C@@H]1C(=O)N(S(=O)(=O)O)[C@@H]1CNC(=O)c1ccc(CNC(=O)c2cc(O)c(O)cn2)cc1)c1csc(N)n1)C(=O)O [Example 51, 2-({[(1Z)-1-(2-amino-1,3-thiazol-4-yl)-2-{[(2R,3S)-2-({[4-({[(4,5-dihydroxypyridin-2-yl)carbonyl]amino}methyl)benzoyl]amino}methyl)-4-oxo-1-sulfoazetidin-3-yl]amino}-2-oxoethylidene]amino}oxy)-2-methylpropanoic acid] | 0.125 (≈ 0.173 µM) | 2 (≈ 2.78 µM) |  |  | 1 (≈ 1.39 µM) | 
10 | CC(C)(O/N=C(\C(=O)N[C@@H]1C(=O)N(S(=O)(=O)O)[C@@H]1COC(=O)c1cc(-c2cc(=O)c(O)cn2O)no1)c1csc(N)n1)C(=O)O [Example 13, 2-({[(1Z)-1-(2-amino-1,3-thiazol-4-yl)-2-({(2S,3S)-2-[({[3-(1,5-dihydroxy-4-oxo-1,4-dihydropyridin-2-yl)isoxazol-5-yl]carbonyl}oxy)methyl]-4-oxo-1-sulfoazetidin-3-yl}amino)-2-oxoethylidene]amino}oxy)-2-methylpropanoic acid] | 0.25 (≈ 0.372 µM) | 0.125 (≈ 0.186 µM) |  |  | 0.5 (≈ 0.745 µM) | 
11 | CC(C)(O/N=C(\C(=O)N[C@@H]1C(=O)N(S(=O)(=O)O)[C@@H]1Cn1cc(-c2cc(=O)c(O)c[nH]2)nn1)c1csc(N)n1)C(=O)O [Example 2, 2-({[(1Z)-1-(2-amino-1,3-thiazol-4-yl)-2-{[(2R,3S)-2-{[4-(5-hydroxy-4-oxo-1,4-dihydropyridin-2-yl)-1H-1,2,3-triazol-1-yl]methyl}-4-oxo-1-sulfoazetidin-3-yl]amino}-2-oxoethylidene]amino}oxy)-2-methylpropanoic acid] | 2 (≈ 3.27 µM) | 8 (≈ 13.1 µM) |  |  | 8 (≈ 13.1 µM) | 
12 | CC(C)(O/N=C(\C(=O)N[C@@H]1C(=O)N(S(=O)(=O)O)[C@@H]1CNC(=O)c1ccc(C(=O)NCc2cc(=O)c(O)cn2O)cc1)c1csc(N)n1)C(=O)O [Example 43, 2-({[(1Z)-1-(2-amino-1,3-thiazol-4-yl)-2-{[(2R,3S)-2-{[(4-{[(1,5-dihydroxy-4-oxo-1,4-dihydropyridin-2-yl)methyl]carbamoyl}benzoyl)amino]methyl}-4-oxo-1-sulfoazetidin-3-yl]amino}-2-oxoethylidene]amino}oxy)-2-methylpropanoic acid] | 0.125 (≈ 0.17 µM) | 0.5 (≈ 0.679 µM) |  |  | 0.25 (≈ 0.339 µM) | 
